Tested on: BEAS2B cells
Test: Cell viability: resazurin assay
Assay type: cell-based, human
Details: concentrations up to, at least, 10 μM
Method: BEAS2B cells were seeded in 384-well plates (100 μL; 3000/well/; BD Falcon, Catalogue No 353962) in RPMI-LHC8 (RPMI-1640 and LHC8 media combined in equal proportions) one day before experimentation. For cell-free control wells, RPMI-LHC8 (100 μL) was added. Test compounds (0.5 μL of a DMSO solution) were added to give a final DMSO concentration of 0.5% using an Integra VIAFLO 96 (Integra, Zizers, Switzerland). BEAS2B cells were incubated with each test compound for 1 day (37° C./5% CO2 in RPMI-LHC8). After addition of resazurin stock solution (5 μL, 0.04%) the plates were incubated for a further 4 hr (37° C./5% CO2). The fluorescence of each well at 545 nm (excitation) and 590 nm (emission) was determined using a multi-scanner (Clariostar: BMG Labtech). The percentage loss of cell viability was calculated for each well relative to vehicle (0.5% DMSO) treatment. Where appropriate, a CC50 value was calculated from the concentration-response curve generated from the concentration-response curve for each test compound.

## Cc1cc(N2CCN(c3ccc(C(=O)Nc4ccc(F)cc4)cc3)CC2)ccc1OC[C@@H]1CO[C@@](Cn2cncn2)(c2ccc(F)cc2F)C1 [Compound (I), 4-(4-(4-(((3R,5R)-5-((1H-1,2,4-triazol-1-yl)methyl)-5-(2,4-difluorophenyl)tetrahydrofuran-3-yl)methoxy)-3-methylphenyl)piperazin-1-yl)-N-(4-fluorophenyl)benzamide]
  effect on the viability of BEAS2B bronchial epithelial cells: no or little effect
